Data as given in patent publication US20150225377A1, “VEGFR3 INHIBITORS” (CANCER THERAPEUTICS CRC PTY LIMITED, priority 2012, published 2015).

Each compound was assayed against T1, VEGFR2 (Homo sapiens, UniProt P35968) (assay: VEGFR2 Phospho ELISA assay in HUVEC, VEGF stimulated). Details: 1 hour compound, 50 ng/mL VEGF 10 minutes.
T1 construct: host or cells: HUVEC
Format: cell-based
Description: Adult human umbilical vein endothelial cells (HUVEC) (Cat#CC-2519, Lonza) were seeded into clear-bottom, TC treated 12 well plates (Cat #665180, Greiner Bio-One) in EGM-2 (Cat#CC-3162, Lonza) at 180,000 cells/well (volume 1 mL), and the plates incubated at 37° C. and 5% CO2 for 6 hours. The media was replaced with EBM-2 (Cat #CC-3156, Lonza)+0.1% BSA (Cat#A8412, Sigma) and cells incubated for a further period (overnight at 37° C. and 5% CO2).
96 well Maxisorp immuno plates (Cat #439454, Nunc) were coated with 100 μL of Total VEGFR^2 capture antibody (Part #841434, Human Total VEGFR^2/FLT4 ELISA Kit, Cat #DYC1780, R&D Systems), or Phospho VEGFR^2 Capture antibody (Part #841419, Human Phospho VEGFR^2/FLT4 ELISA Kit, Cat#DYC1766, R&D Systems). The plates were covered and incubated at room temperature overnight.
The coating antibody was flicked out and the plates washed three times with Wash Buffer (Phosphate buffered saline (137 mM NaCl, […], […], […], pH 7.2-7.4), 0.05% Tween 20). 300 μL of Blocking buffer (1% v/v BSA (Cat#A8412, Sigma) in PBS) was then added to wells and plate incubated for 2 hours at room temperature. Blocking solution is flicked out and plates washed three times and tapped dry.
Compound dilution series were prepared in EBM-2 (Cat #CC-3156, Lonza)+0.1% BSA (Cat#A8412, Sigma) with constant 0.1% DMSO concentration. 427.5 μL of sample or vehicle control was added to the cell monolayers. Cells are treated for 1 hour at 37° C. and 5% CO2. 50 ng/mL Recombinant human VEGF (Cat #293-VC, R & D Systems) added to wells and plates incubated for an additional 10 minutes at 37° C. and 5% CO2.
The media and compounds were removed and the cell monolayer washed once in Dulbecco's Phosphate Buffered Saline (Cat #21600-044, Invitrogen). 130 μL of Lysis buffer added to wells and cell lysate harvested and transferred to tubes and stored on ice. Complete lysis buffer was prepared by adding 10 μL Protease Inhibitor Cocktail (Cat #P8340, Sigma-Aldrich), 10 μL PMSF (Phenylmethanesulfonyl fluoride, Cat #P7626, Sigma-Aldrich, prepared as 500 mM DMSO stock) per 1 mL of Phosphosafe™ Extraction Reagent (Cat #71296, Merck).
The harvested samples were then diluted 1:2 in IC Diluent #12 (1% NP-40, […] (pH 8.0), 137 mM NaCl, 10% glycerol, 2 mM EDTA, 1 mM activated sodium orthovanadate) and 100 μL transferred to the Total and Phospho VEGFR^2 coated, blocked and washed 96 well plates and incubated for 2 hours at room temperature. The plates were then washed three times in wash buffer as described above and tapped dry.
For detection of Total VEGFR^2100 μL of Detection antibody (Total VEGFR^2 Detection Antibody Part#841435 in Total VEGFR^2 kit) diluted in IC Diluent #14 (20 mM Tris, […], 0.05% Tween20, 0.1% BSA) was added to wells and the plate incubated for 2 hours at room temperature. The plate was then washed three times in wash buffer and tapped dry. 100 μL of streptavidin-HPR diluted in IC diluent #14 Streptavidin-HRP, Part #890803 in Total VEGFR^2 kit) was added to wells and incubated at room temperature for 20 minutes followed by washing as described above. 100 μL Substrate solution (3,3′,5,5′-Tetramethylbenzidine (TMB) Liquid Substrate System for ELISA, Cat #T0440, Sigma-Aldrich) was added and the plate incubated for 20 minutes in the dark at room temperature followed by the addition of 50 μL stop solution (2 M H2SO4).
Total VEGFR^2 levels were quantified using a Multiskan Ascent plate reader and Ascent software fitted with 450 nm filter.
For detection of Phospho VEGFR^2, 100 μL of Detection antibody (Anti-Phospho-Tyrosine-HRP Detection Antibody, Part #841403 in Phospho VEGFR^2 kit) was diluted in IC Diluent 14 (20 mM Tris, […], 0.05% Tween20, 0.1% BSA), was added to the wells and the plate incubated for 2 hours at room temperature. The plate was then washed three times in wash buffer as described above and tapped dry. […]

T1 sequence (P35968 20-1356): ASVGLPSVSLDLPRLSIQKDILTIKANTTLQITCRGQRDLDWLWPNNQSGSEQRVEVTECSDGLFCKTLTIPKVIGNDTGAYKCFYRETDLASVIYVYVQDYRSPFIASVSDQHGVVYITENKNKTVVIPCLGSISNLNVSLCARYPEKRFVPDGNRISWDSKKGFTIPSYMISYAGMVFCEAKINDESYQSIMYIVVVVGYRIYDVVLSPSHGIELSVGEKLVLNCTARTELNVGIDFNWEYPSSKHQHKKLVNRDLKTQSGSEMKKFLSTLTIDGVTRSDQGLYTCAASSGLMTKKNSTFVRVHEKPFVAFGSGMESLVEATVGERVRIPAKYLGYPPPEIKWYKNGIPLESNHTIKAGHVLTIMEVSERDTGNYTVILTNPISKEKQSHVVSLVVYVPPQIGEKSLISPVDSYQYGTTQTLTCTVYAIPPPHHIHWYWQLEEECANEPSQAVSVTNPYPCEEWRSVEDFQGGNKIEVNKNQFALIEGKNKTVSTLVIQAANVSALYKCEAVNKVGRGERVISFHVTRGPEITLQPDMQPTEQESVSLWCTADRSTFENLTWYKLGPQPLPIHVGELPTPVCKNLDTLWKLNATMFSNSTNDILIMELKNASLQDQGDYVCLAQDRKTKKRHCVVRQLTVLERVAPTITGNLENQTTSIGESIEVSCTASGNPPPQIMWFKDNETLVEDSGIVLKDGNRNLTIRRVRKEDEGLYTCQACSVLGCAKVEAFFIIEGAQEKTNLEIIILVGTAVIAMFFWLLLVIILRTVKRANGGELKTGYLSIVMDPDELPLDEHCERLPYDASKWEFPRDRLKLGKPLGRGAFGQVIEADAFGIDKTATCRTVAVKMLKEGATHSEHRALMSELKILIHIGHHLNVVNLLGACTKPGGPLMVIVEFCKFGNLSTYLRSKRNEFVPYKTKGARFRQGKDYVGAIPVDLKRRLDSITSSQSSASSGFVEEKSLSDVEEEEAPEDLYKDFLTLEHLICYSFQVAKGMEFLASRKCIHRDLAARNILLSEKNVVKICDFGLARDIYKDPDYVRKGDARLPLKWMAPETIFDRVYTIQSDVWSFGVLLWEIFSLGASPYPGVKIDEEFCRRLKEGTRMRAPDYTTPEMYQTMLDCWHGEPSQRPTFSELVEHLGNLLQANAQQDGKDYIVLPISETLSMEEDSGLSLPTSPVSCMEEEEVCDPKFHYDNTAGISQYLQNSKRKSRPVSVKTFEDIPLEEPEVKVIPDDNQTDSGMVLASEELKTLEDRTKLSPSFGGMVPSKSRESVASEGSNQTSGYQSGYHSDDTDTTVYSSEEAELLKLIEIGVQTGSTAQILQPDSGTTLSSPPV

Q: Which IC50 does the source give for `Cc1cnc(Nc2ccc(N3CCNCC3)cc2)nc1CCc1ccccc1CC(N)=O` [Compound 2, 2-(2-(2-(5-methyl-2-((4-(piperazin-1-yl)phenyl)amino)pyrimidin-4-yl)ethyl)phenyl)acetamide] here?
A: 4400 nM

Q: With `Cc1cnc(Nc2ccc(C3CCNCC3)nc2)nc1CCc1ccccc1CC(N)=O` [Compound 4, 2-(2-(2-(5-methyl-2-((6-(piperidin-4-yl)pyridin-3-yl)amino)pyrimidin-4-yl)ethyl)phenyl)acetamide] as the compound, how does the IC50 read?
A: > 10000 nM

Q: With `CC(N)c1ccc(Nc2ncc(C(F)(F)F)c(CCc3ccccc3CC(N)=O)n2)cc1` (stereo not drawn) [Compound 18, 2-(2-(2-(2-(4-(1-aminoethyl)phenylamino)-5-(trifluoromethyl)pyrimidin-4-yl)ethyl)phenyl)acetamide] as the compound, how does the IC50 read?
A: 2550 nM

Q: For `Cc1cnc(Nc2cccnc2)nc1CCc1ccccc1CC(N)=O` [Compound 24, 2-(2-(2-(5-methyl-2-(pyridin-3-ylamino)pyrimidin-4-yl)ethyl)phenyl)acetamide], which IC50 is on record?
A: > 10000 nM

Q: How did the IC50 turn out when `Cc1cnc(Nc2ccc(OC3CCNCC3)cc2)nc1CCc1ccccc1CC(N)=O` [Compound 26, 2-(2-(2-(5-methyl-2-((4-(piperidin-4-yloxy)phenyl)amino)pyrimidin-4-yl)ethyl)phenyl)acetamide] was run?
A: 4070 nM

Q: With `Cc1cnc(Nc2cnn(C)c2)nc1CCc1ccccc1CC(N)=O` [Compound 28, 2-(2-(2-(5-methyl-2-((1-methyl-^1H-pyrazol-4-yl)amino)pyrimidin-4-yl)ethyl)phenyl)acetamide] as the compound, how does the IC50 read?
A: 6840 nM

Q: `Cc1cnc(Nc2ccc(C3(N)COC3)cc2)nc1CCc1ccccc1CC(N)=O` [Compound 31, 2-(2-(2-(2-(4-(3-aminooxetan-3-yl)phenylamino)-5-methylpyrimidin-4-yl)ethyl)phenyl)acetamide] was tested. Which IC50 did it give?
A: 5100 nM

Q: How did the IC50 turn out when `Cc1cnc(Nc2cnn(C3CCNCC3)c2)nc1CCc1ccccc1CC(N)=O` [Compound 33, 2-(2-(2-(5-Methyl-2-((1-(piperidin-4-yl)-^1H-pyrazol-4-yl)amino)pyrimidin-4-yl)ethyl)phenyl)acetamide] was run?
A: > 10000 nM

Q: For `CC(N)c1ccc(Nc2ncc(Cl)c(CCc3ccccc3CC(N)=O)n2)cc1` (stereo not drawn) [Compound 37, 2-(2-(2-(2-(4-(1-aminoethyl)phenylamino)-5-chloropyrimidin-4-yl)ethyl)phenyl)acetamide], which IC50 is on record?
A: 200 nM
